Assay type in all cases: physicochemical
Data set [1] in a line: Influencing-factor stability of I and IV crystal forms, purity by HPLC (Thermo Ultimate3000DAD). The following applies: for crystal stability (in words): conditions of light, high temperature, and high humidity. From the text: The stability of the I and IV crystal form of the compound represented by formula (I) was investigated. The purity of the crystal forms was detected by Thermo Ultimate3000DAD high-performance liquid chromatography system, and Waters symmetry C18, (250*4.6 mm, 5 μm) was used as the detection chromatographic column, mobile phase: sodium dihydrogen phosphate/ACN/H2O, detection wavelength: 261 nm.

Data set [2] is described as follows: Solid properties / fluidity of crystal form.
A short description of data set [3]: Influencing-factor stability of I crystal form and amorphous form, purity by HPLC (Agilent1200 DAD). The settings on record: for stability after long-term storage (in words): high temperature, high humidity. The source says:
The stability of the I crystal form of the compound represented by formula (I) was investigated. The purity of the crystal form was detected by Agilent1200 DAD high performance liquid chromatography system, and Waters symmetry C18, (250*4.6 mm, 5 μm) was used as the detection column, mobile phase: sodium dihydrogen phosphate/ACN/H2O, detection wavelength: 261 nm.

In the case of `CCOc1cc2ncc(C#N)c(Nc3ccc(OCc4ccccn4)c(Cl)c3)c2cc1NC(=O)/C=C/[C@H]1CCCN1C.O=C(O)/C=C\C(=O)O` [IV crystal form], the purity % in data set [1] (40° C., day 0) is given as 99.94%; in data set [1] (40° C., day 5), 99.92%; in data set [1] (40° C., day 10), 99.93%; in data set [1] (40° C., day 30) it was 99.85%; in data set [1] (60° C., day 0), 99.94%; in data set [1] (60° C., day 5) it was 99.83%. Further, the purity % in data set [1] (60° C., day 10) was found to be 99.77%; in data set [1] (60° C., day 30) it was 99.50%; in data set [1] (RH 75%, day 0), 99.94%; in data set [1] (RH 75%, day 5), 99.93%; in data set [1] (RH 75%, day 10) it was 99.94%; in data set [1] (RH 75%, day 30), 99.94%. Moreover, the purity % in data set [1] (RH 90%, day 0) is listed as 99.94%; in data set [1] (RH 90%, day 5), 99.93%; in data set [1] (RH 90%, day 10), 99.94%; in data set [1] (RH 90%, day 30), 99.93%; in data set [1] (illumination, day 0), 99.94%; in data set [1] (illumination, day 5) it was 99.92%. Also, the purity % amounted to 99.92% in data set [1] (illumination, day 10) and 99.85% in data set [1] (illumination, day 30). In data set [1], the “crystal stability (in words)” value is given as “good crystal stability”.

In the case of `CCOc1cc2ncc(C#N)c(Nc3ccc(OCc4ccccn4)c(Cl)c3)c2cc1NC(=O)/C=C/[C@H]1CCCN1C.O=C(O)/C=C\C(=O)O` [II crystal form], the fluidity entry in data set [2] was “poor”.

`CCOc1cc2ncc(C#N)c(Nc3ccc(OCc4ccccn4)c(Cl)c3)c2cc1NC(=O)/C=C/[C@H]1CCCN1C.O=C(O)/C=C\C(=O)O` [amorphous, reference compound]: the purity % is recorded as 99.31% in data set [3] (40° C., day 0); 99.21% in data set [3] (40° C., day 5); 99.13% in data set [3] (40° C., day 10); 98.57% in data set [3] (40° C., day 30); 99.31% in data set [3] (RH 75%, day 0); 99.35% in data set [3] (RH 75%, day 5). Besides, the purity % in data set [3] (RH 75%, day 10) is reported as 99.33%; in data set [3] (RH 75%, day 30), 99.09%; in data set [3] (RH 90%, day 0) it was 99.31%; in data set [3] (RH 90%, day 5) it was 95.76%; in data set [3] (RH 90%, day 10), 94.05%; in data set [3] (RH 90%, day 30), 85.09%. The purity % in data set [3] (illumination, day 0) amounted to 99.31%; in data set [3] (illumination, day 5), 98.04%; in data set [3] (illumination, day 10), 96.65%; in data set [3] (illumination, day 30), 93.48%. The “stability after long-term storage (in words)” value in data set [3] (illumination, listed as amorphous form) is recorded as “poor stability”.

Regarding `CCOc1cc2ncc(C#N)c(Nc3ccc(OCc4ccccn4)c(Cl)c3)c2cc1NC(=O)/C=C/[C@H]1CCCN1C.O=C(O)/C=C\C(=O)O` [I crystal form], the purity % in data set [1] (40° C., day 0) worked out at 99.83%; in data set [1] (40° C., day 5) it was 99.78%; in data set [1] (40° C., day 10) it was 99.77%; in data set [1] (40° C., day 30), 99.69%; in data set [1] (60° C., day 0) it was 99.83%; in data set [1] (60° C., day 5) it was 99.64%. The purity % in data set [1] (60° C., day 10) came to 99.51%; in data set [1] (60° C., day 30), 99.24%; in data set [1] (RH 75%, day 0) it was 99.83%; in data set [1] (RH 75%, day 5) it was 99.81%; in data set [1] (RH 75%, day 10) it was 99.81%; in data set [1] (RH 75%, day 30) it was 99.68%. The purity % in data set [1] (RH 90%, day 0) came out at 99.83%; in data set [1] (RH 90%, day 5), 99.81%; in data set [1] (RH 90%, day 10), 99.82%; in data set [1] (RH 90%, day 30) it was 99.82%; in data set [1] (illumination, day 0), 99.83%; in data set [1] (illumination, day 5), 99.68%. For the same molecule, the purity % in data set [1] (illumination, day 10) came to 99.59%; in data set [1] (illumination, day 30), 99.29%; in data set [3] (40° C., day 0) it was 99.56%; in data set [3] (40° C., day 5), 99.55%; in data set [3] (40° C., day 10) it was 99.51%; in data set [3] (40° C., day 30), 99.43%. For the same molecule, the purity % is 99.56% in data set [3] (RH 75%, day 0); 99.53% in data set [3] (RH 75%, day 5); 99.53% in data set [3] (RH 75%, day 10); 99.52% in data set [3] (RH 75%, day 30); 99.56% in data set [3] (RH 90%, day 0); 99.53% in data set [3] (RH 90%, day 5). Also, the purity % was found to be 99.54% in data set [3] (RH 90%, day 10); 99.51% in data set [3] (RH 90%, day 30); 99.56% in data set [3] (illumination, day 0); 99.35% in data set [3] (illumination, day 5); 99.29% in data set [3] (illumination, day 10); 99.00% in data set [3] (illumination, day 30). Also, in data set [1], the “crystal stability (in words)” value is recorded as “good crystal stability”. Besides, the “stability after long-term storage (in words)” value in data set [3] (illumination) is “good physical and chemical stability”.
